From patent US8722849B2, “Polypeptides” (Novo Nordisk A/S, priority 2011, dated 2014)
≈ marks a conversion by molar mass, not a printed value. Read-outs that look alike come from different tables or passages of the source. Starred links: 1 amine or outer side, 2 acyl side, 3 side chain; linkers in the order of their positions; H or OH if unused. Positions of bridges follow the written chain, without caps; N, C: chain ends. Residues, ends and D or L forms follow the SMILES beside them. *: point of attachment. C20 diacid = O=C(O)CCCCCCCCCCCCCCCCCCC(=O)*; γGlu = O=C(O)[C@H](CCC(=O)[*:2])N[*:1]

Tests used:
amylin receptor = molecular target: T1, amylin receptor (Homo sapiens, UniProt P30988); conditions: amylin receptor vs calcitonin receptor, cited from earlier work
T1 sequence (P30988 25-474): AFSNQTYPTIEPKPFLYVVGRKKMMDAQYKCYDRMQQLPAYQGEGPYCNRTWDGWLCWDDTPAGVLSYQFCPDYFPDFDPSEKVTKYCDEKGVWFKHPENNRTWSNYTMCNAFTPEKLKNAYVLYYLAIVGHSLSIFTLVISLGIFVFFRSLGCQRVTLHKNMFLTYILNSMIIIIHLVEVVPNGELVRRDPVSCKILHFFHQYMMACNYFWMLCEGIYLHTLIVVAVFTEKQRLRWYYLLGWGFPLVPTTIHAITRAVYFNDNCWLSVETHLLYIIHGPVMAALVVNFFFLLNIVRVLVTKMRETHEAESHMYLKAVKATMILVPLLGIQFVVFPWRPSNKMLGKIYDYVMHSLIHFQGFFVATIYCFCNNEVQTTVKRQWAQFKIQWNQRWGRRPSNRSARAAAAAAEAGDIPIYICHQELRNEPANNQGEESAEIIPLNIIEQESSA

[1] = molecular target: T2, rat calcitonin (a) receptor (Rattus norvegicus, UniProt P32214); experiment: Assay (II)b functional cAMP FlashPlate assay, rat calcitonin receptor; assay type: cell-based; conditions: Table 11; read-out: CTa receptor rat EC50
T2 construct: expressed in transfected cells; host or cells: BHK tk'ts 13
T2 sequence (P32214 25-479 isoform P32214-2 limits assumed): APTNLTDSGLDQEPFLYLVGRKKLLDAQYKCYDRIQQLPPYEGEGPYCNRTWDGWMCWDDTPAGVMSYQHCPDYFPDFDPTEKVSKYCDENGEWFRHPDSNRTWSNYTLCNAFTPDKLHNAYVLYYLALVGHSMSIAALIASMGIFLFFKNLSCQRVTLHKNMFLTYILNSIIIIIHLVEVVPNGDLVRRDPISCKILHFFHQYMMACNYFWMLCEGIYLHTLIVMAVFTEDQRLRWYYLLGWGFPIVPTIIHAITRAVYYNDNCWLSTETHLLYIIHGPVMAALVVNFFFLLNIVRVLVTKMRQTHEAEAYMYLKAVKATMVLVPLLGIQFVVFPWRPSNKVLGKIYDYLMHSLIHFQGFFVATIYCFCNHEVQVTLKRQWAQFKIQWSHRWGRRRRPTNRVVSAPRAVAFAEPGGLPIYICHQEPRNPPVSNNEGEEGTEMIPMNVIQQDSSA
Procedure, shortened: (§1)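 cAMP accumulation in transiently transfected BHK tk'ts 13 cells, 100.000 cells/well, expressing rat calcitonin(a) receptor or its RAMP3 co-expression form (amylin 3(a)): 30 min stimulation with IBMX, 24 hours post-transfection. Readout by competition of cellular versus radiolabelled cAMP in FlashPlates, scintillation counted after 3 h.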

[2] = molecular target: T3, rat amylin 3(a) receptor (rat calcitonin(a) receptor + rat RAMP3) (Rattus norvegicus, UniProt P32214+Q9JJ73); experiment: Assay (II)b functional cAMP FlashPlate assay, rat amylin receptor; assay type: cell-based; conditions: Table 11
T3 construct: expressed in transfected cells; host or cells: BHK tk'ts 13
T3 sequence (P32214 25-479 isoform P32214-2 limits assumed): T2 sequence (P32214 25-479 isoform P32214-2 limits assumed)
T3 sequence (Q9JJ73 23-147 partner): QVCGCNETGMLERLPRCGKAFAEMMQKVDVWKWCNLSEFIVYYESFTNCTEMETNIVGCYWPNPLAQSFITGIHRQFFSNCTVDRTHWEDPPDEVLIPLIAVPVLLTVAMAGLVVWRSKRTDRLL
Procedure, shortened: as §1

[3] = Assay (IX) pK, determination of T½ in mini-pig; assay type: in vivo, Göttingen mini-pigs; conditions: male, Göttingen, iv, 2 nmol/kg; minipig; plasma terminal half-life
[4] = molecular target: T4, human calcitonin receptor (Homo sapiens, UniProt P30988); experiment: Assay (II)a functional CRE-luciferase assay, human calcitonin receptor; assay type: cell-based; conditions: Table 7; human calcitonin (CTa) receptor
T4 construct: expressed in transfected cells; host or cells: BHK570
T4 sequence (P30988 25-474): T1 sequence (P30988 25-474)

[5] = molecular target: T5, human amylin receptor (amylin 3(a) receptor: human calcitonin receptor + RAMP-3) (Homo sapiens, UniProt O60896+P30988); experiment: Assay (II)a functional CRE-luciferase assay, human amylin receptor; assay type: cell-based; conditions: Table 2; BHK amylin 3(a)-receptor/CRE-luc cells
T5 construct: expressed in transfected cells; host or cells: BHK570
T5 sequence (P30988 25-474): T1 sequence (P30988 25-474)
T5 sequence (O60896 24-148 partner): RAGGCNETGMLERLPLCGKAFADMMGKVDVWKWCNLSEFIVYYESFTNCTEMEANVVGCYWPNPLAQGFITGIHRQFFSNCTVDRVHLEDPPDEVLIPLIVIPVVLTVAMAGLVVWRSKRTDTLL

[6] = Assay (IV) determination of solubility; assay type: physicochemical
Procedure, shortened: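 Eight 100 mM buffers (glycylglycine pH 3.0–5.0, bistrispropane pH 6.0–8.0) each received an equal volume of polypeptide dissolved in water at ~500 nmol/ml. Soluble polypeptide was measured by HPLC following 18 hours at room temperature and centrifugation.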

[7] = bistrispropane buffer, pH 6, pH 6.0, read-out: Solubility pH 6.0
[8] = bistrispropane buffer, pH 6.5, pH 6.5, read-out: Solubility pH 6.5
[9] = bistrispropane buffer, pH 7, pH 7.0, 18 hours at room temperature, Table 3, read-out: Solubility pH 7.0
[10] = bistrispropane buffer, pH 7, pH 7.0, read-out: Solubility pH 7.0
[11] = bistrispropane buffer, pH 7.5, pH 7.5, read-out: Solubility pH 7.5
[12] = bistrispropane buffer, pH 8, pH 8.0, read-out: Solubility pH 8.0
[13] = glycylglycine buffer, pH 3, pH 3.0, read-out: Solubility pH 3.0
[14] = glycylglycine buffer, pH 4, pH 4.0, 18 hours at room temperature, Table 2, read-out: Solubility pH 4.0
[15] = glycylglycine buffer, pH 4, pH 4.0, read-out: Solubility pH 4.0
[16] = glycylglycine buffer, pH 5, pH 5.0, read-out: Solubility pH 5.0

Molecule	EC50 [1] [pM]	EC50 [2] [pM]	half-life [3] [h]	EC50 [4] [pM]	EC50 [5] [pM]	solubility at 18 h [6, 7] [µM]	solubility at 18 h [6, 8] [µM]	solubility at 18 h [6, 9] [µM]	solubility at 18 h [6, 10] [µM]	solubility at 18 h [6, 11] [µM]	solubility at 18 h [6, 12] [µM]	solubility at 18 h [6, 13] [µM]	solubility at 18 h [6, 14] [µM]	solubility at 18 h [6, 15] [µM]	solubility at 18 h [6, 16] [µM]	other results
pramlintide	–	–	–	–	–	–	–	–	–	–	–	–	–	–	–	potency on the amylin receptor relative to the calcitonin receptor (amylin receptor): 14 times; potency on the amylin receptor relative to the calcitonin receptor (amylin receptor; listed as Pramlintide): approximately 14 times
CC[C@H](C)[C@H](NC(=O)[C@@H]1CCCN1C(=O)CNC(=O)[C@H](Cc1ccccc1)NC(=O)[C@H](CC(N)=O)NC(=O)[C@H](CC(N)=O)NC(=O)[C@H](CO)NC(=O)[C@H](CO)NC(=O)[C@H](Cc1c[nH]cn1)NC(=O)[C@H](Cc1cnc[nH]1)NC(=O)[C@H](CC(C)C)NC(=O)[C@H](Cc1ccccc1)NC(=O)[C@H](CCC(=O)O)NC(=O)[C@H](C)NC(=O)[C@H](CC(C)C)NC(=O)[C@H](CCCNC(=N)N)NC(=O)[C@H](CCC(N)=O)NC(=O)[C@@H](NC(=O)[C@H](C)NC(=O)[C@@H]1CSSC[C@H](NC(=O)[C@H](CCCCN)NC(=O)CC[C@H](NC(=O)CCCCCCCCCCCCCCCCCCC(=O)O)C(=O)O)C(=O)N[C@@H](CC(N)=O)C(=O)N[C@@H]([C@@H](C)O)C(=O)N[C@@H](C)C(=O)N[C@@H]([C@@H](C)O)C(=O)N1)[C@@H](C)O)C(=O)N[C@@H](CC(C)C)C(=O)N1CCC[C@H]1C(=O)N1CCC[C@H]1C(=O)N[C@H](C(=O)N[C@@H](CC(N)=O)C(=O)N[C@H](C(=O)NCC(=O)N[C@@H](CO)C(=O)N[C@@H](Cc1cnc[nH]1)C(=O)N[C@H](C(=O)N[C@@H](Cc1ccc(O)cc1)C(N)=O)[C@@H](C)O)C(C)C)[C@@H](C)O [Example 55, N-alpha-[(S)-4-Carboxy-4-(19-carboxynonadecanoylamino)butyryl]-[Glu14,His17,His35]-pramlintide] ({C20 diacid-γGlu}-KCNTATCATQRLAEFLHHSSNNFGPILPPTNVGSHTY-NH2; disulfide 2-7)	673	262	73	163	152	> 200	146 (≈ 654 µg/mL)	102 (≈ 459 µg/mL)	102 (≈ 459 µg/mL)	108 (≈ 486 µg/mL)	146 (≈ 654 µg/mL)	> 200	> 200	> 200	> 200	–
CC[C@H](C)[C@H](NC(=O)[C@@H]1CCCN1C(=O)CNC(=O)[C@H](Cc1ccccc1)NC(=O)[C@H](CC(N)=O)NC(=O)[C@H](CC(N)=O)NC(=O)[C@H](CO)NC(=O)[C@H](CO)NC(=O)[C@H](Cc1c[nH]cn1)NC(=O)[C@H](CCCNC(=N)N)NC(=O)[C@H](CC(C)C)NC(=O)[C@H](Cc1ccccc1)NC(=O)[C@H](CCC(=O)O)NC(=O)[C@H](C)NC(=O)[C@H](CC(C)C)NC(=O)[C@H](CCCNC(=N)N)NC(=O)[C@H](CCC(N)=O)NC(=O)[C@@H](NC(=O)[C@H](C)NC(=O)[C@@H]1CSSC[C@H](NC(=O)[C@H](CCCCN)NC(=O)CC[C@H](NC(=O)CCCCCCCCCCCCCCCCCCC(=O)O)C(=O)O)C(=O)N[C@@H](CC(N)=O)C(=O)N[C@@H]([C@@H](C)O)C(=O)N[C@@H](C)C(=O)N[C@@H]([C@@H](C)O)C(=O)N1)[C@@H](C)O)C(=O)N[C@@H](CC(C)C)C(=O)N1CCC[C@H]1C(=O)N1CCC[C@H]1C(=O)N[C@H](C(=O)N[C@@H](CC(N)=O)C(=O)N[C@H](C(=O)NCC(=O)N[C@@H](CO)C(=O)N[C@@H](Cc1cnc[nH]1)C(=O)N[C@H](C(=O)N[C@@H](Cc1ccc(O)cc1)C(N)=O)[C@@H](C)O)C(C)C)[C@@H](C)O [Example 57, N-alpha-[(S)-4-Carboxy-4-(19-carboxynonadecanoylamino)butyryl]-[Glu14,Arg17,His35]-pramlintide] ({C20 diacid-γGlu}-KCNTATCATQRLAEFLRHSSNNFGPILPPTNVGSHTY-NH2; disulfide 2-7)	2840	511	68	387	111	> 200	> 200	> 200	> 200	121 (≈ 544 µg/mL)	–	> 200	> 200	> 200	> 200	solubility at 18 h ([6]; bistrispropane buffer, pH 7, pH 7.0, Table 8, read-out: Solubility pH 7.0): > 200 µM; solubility at 18 h ([6]; bistrispropane buffer, pH 7, pH 7.0, Table 9, read-out: Solubility pH 7.0): > 200 µM; solubility at 18 h ([6]; bistrispropane buffer, pH 7.5, pH 7.5, Table 9, read-out: Solubility pH 7.5): 121 µM (≈ 544 µg/mL); solubility at 18 h ([6]; pH 8.0, read-out: Solubility pH 8.0): 80 µM (≈ 360 µg/mL)
CC[C@H](C)[C@H](NC(=O)[C@@H]1CCCN1C(=O)CNC(=O)[C@H](Cc1ccccc1)NC(=O)[C@H](CC(N)=O)NC(=O)[C@H](CC(N)=O)NC(=O)[C@H](CO)NC(=O)[C@H](CO)NC(=O)[C@H](Cc1cnc[nH]1)NC(=O)[C@H](Cc1cnc[nH]1)NC(=O)[C@H](CC(C)C)NC(=O)[C@H](Cc1ccccc1)NC(=O)[C@H](CCC(=O)O)NC(=O)[C@H](C)NC(=O)[C@H](CC(C)C)NC(=O)[C@H](CCCNC(=N)N)NC(=O)[C@H](CCC(N)=O)NC(=O)[C@@H](NC(=O)[C@H](C)NC(=O)[C@@H]1CSSC[C@H](NC(=O)[C@H](Cc2cnc[nH]2)NC(=O)[C@H](Cc2cnc[nH]2)NC(=O)[C@H](Cc2cnc[nH]2)NC(=O)CC[C@H](NC(=O)CCCCCCCCCCCCCCCCCCC(=O)O)C(=O)O)C(=O)N[C@@H](CC(N)=O)C(=O)N[C@@H]([C@@H](C)O)C(=O)N[C@@H](C)C(=O)N[C@@H]([C@@H](C)O)C(=O)N1)[C@@H](C)O)C(=O)N[C@@H](CC(C)C)C(=O)N1CCC[C@H]1C(=O)N1CCC[C@H]1C(=O)N[C@H](C(=O)N[C@@H](CC(N)=O)C(=O)N[C@H](C(=O)NCC(=O)N[C@@H](CO)C(=O)N[C@@H](CC(N)=O)C(=O)N[C@H](C(=O)N[C@@H](Cc1ccc(O)cc1)C(N)=O)[C@@H](C)O)C(C)C)[C@@H](C)O [Example 11, N-alpha-[(S)-4-Carboxy-4-(19-carboxynonadecanoylamino)butyryl]-His-His-[His1,Glu14,His17]-pramlintide] ({C20 diacid-γGlu}-HHHCNTATCATQRLAEFLHHSSNNFGPILPPTNVGSNTY-NH2; disulfide 4-9)	962	88.5	106	208	85.3	> 200	44 (≈ 209 µg/mL)	–	29 (≈ 137 µg/mL)	157 (≈ 744 µg/mL)	> 200	> 200	> 200	> 200	> 200	–
